Each compound was assayed on HT-1080 cells (assay: HT-1080 cell viability assay (ferroptosis induced by RSL3, Cell Titer-Glo)). Conditions: Homo sapiens, HT-1080, 20 h, ferroptosis inducer RSL3, 20 hours, ferroptosis inhibitory activity, Table 3.
Assay type: cell-based
Method in brief: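 EC50 fitted by sigmoidal dose-response regression on luminescent viability data normalized to untreated cells. Compounds ran as a 10-point, 3-fold series from 1.1 μM alongside RSL3 for 20 hours, after overnight seeding.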

Row | SMILES | EC50
1 | Cc1nc(N2C3CCC2CC3)ccc1NC1CC2(CC(N)C2)C1 (stereo not shown) [Compound 587, N2-(6-(7-azabicyclo[2.2.1]heptan-7-yl)-2-methylpyridin-3-yl)spiro[3.3]heptane-2,6-diamine] | 100 to 1000 nM
2 | CCC1CN(c2ccc(NC3C4CC5CC3CC(C(N)=O)(C5)C4)c(C)n2)CCO1 (stereo not shown) [Compound 590] | 100 to 1000 nM
3 | COC(C)(C)C1CCN(c2ccc(NC3CC(N)C3)c(C)n2)CC1 (stereo not shown) [Compound 591] | 100 to 1000 nM
4 | Cc1nc(N2CCC(C(C)(C)O)CC2)ccc1NC1CC2(CC(N)C2)C1 (stereo not shown) [Compound 599] | 100 to 1000 nM
5 | CC(=O)N1C(C)CN(c2ccc(NC3CC4(CC(N)C4)C3)c(C)n2)CC1C (stereo not shown) [Compound 600] | 100 to 1000 nM
6 | CC1CN(c2ccc(NC3CC(N)C3)cc2F)CC(C)N1CC(F)(F)F (stereo not shown) [Compound 604, N1-(4-(3,5-dimethyl-4-(2,2,2-trifluoroethyl)piperazin-1-yl)-3-fluorophenyl)cyclobutane-1,3-diamine] | 0.1 to 100 nM
7 | CNC1CC2(C1)CC(Nc1ccc(N3C[C@@H](C)O[C@@H](C)C3)nc1C)C2 (stereo partly drawn) [Compound 605, N^2-(6-((2R,6S)-2,6-dimethylmorpholino)-2-methylpyridin-3-yl)-N^6-methylspiro [3.3]heptane-2,6-diamine] | 0.1 to 100 nM
8 | Cc1nc(N2CCN(C)C(C(F)(F)F)C2)ccc1NC1CC2(CC(N)C2)C1 (stereo not shown) [Compound 606, N2-(2-methyl-6-(4-methyl-3-(trifluoromethyl)piperazin-1-yl)pyridin-3-yl)spiro[3.3]heptane-2,6-diamine] | 0.1 to 100 nM
9 | CC(=O)N1CCN(CCNc2ccc(N3CC(C)OC(C)C3)nc2C)CC1 (stereo not shown) [Compound 607, 1-(4-(2-((6-(2,6-dimethylmorpholino)-2-methylpyridin-3-yl)amino)ethyl)piperazin-1-yl)ethan-1-one] | 100 to 1000 nM
10 | Cc1nc(N2CC[Si](C)(C)CC2)ccc1NC1CC(N)C1 (stereo not shown) [Compound 608, N1-(6-(4,4-dimethyl-1,4-azasilinan-1-yl)-2-methylpyridin-3-yl)cyclobutane-1,3-diamine] | 0.1 to 100 nM
11 | CCCc1nc(N2C[C@@H](C)O[C@@H](C)C2)ccc1NC1CC2(CC(N)C2)C1 (stereo partly drawn) [Compound 609, N2-(6-((2S, 6R)-2,6-dimethylmorpholino)-2-propylpyridin-3-yl)spiro[3.3]heptane-2,6-diamine] | 0.1 to 100 nM
12 | CC1CN(c2ccc3cc(NC4CC5(CC(O)C5)C4)ccc3c2)CC(C)N1CC(F)(F)F (stereo not shown) [Compound 610] | 0.1 to 100 nM
13 | Cc1nc(N2CCN(C(=O)C(F)(F)F)C(C)C2)ccc1NC1CC2(CC(N)C2)C1 (stereo not shown) [Compound 611, 1-(4-(5-((6-aminospiro[3.3]heptan-2-yl)amino)-6-methylpyridin-2-yl)-2-methylpiperazin-1-yl)-2,2,2-trifluoroethan-1-one] | 0.1 to 100 nM
14 | Cc1cc(NC2CC(N)C2)ccc1N1CC(C)N(CC(F)(F)F)C(C)C1 (stereo not shown) [Compound 612, N1-(4-(3,5-dimethyl-4-(2,2,2-trifluoroethyl)piperazin-1-yl)-3-methylphenyl)cyclobutane-1,3-diamine] | 0.1 to 100 nM
15 | CC(C)c1nc(N2C[C@@H](C)O[C@@H](C)C2)ccc1NC1CC2(CC(N)C2)C1 (stereo partly drawn) [Compound 613, N^2-(6-((2S, 6R)-2,6-dimethylmorpholino)-2-isopropylpyridin-3-yl)spiro[3.3]heptane-2,6-diamine] | 0.1 to 100 nM
16 | NC1CC2(C1)CC(Nc1ccc3cc(N4CCOCC4)ccc3c1)C2 (stereo not shown) [Compound 614, N2-(6-morpholinonaphthalen-2-yl)spiro[3.3]heptane-2,6-diamine] | 0.1 to 100 nM
17 | Cc1nc(N2CC[Si](C)(C)CC2)ccc1NC1CC2(C1)CC(C(N)=O)C2 (stereo not shown) [Compound 615, 6-((6-(4,4-dimethyl-1,4-azasilinan-1-yl)-2-methylpyridin-3-yl)amino)spiro[3.3]heptane-2-carboxamide] | 0.1 to 100 nM
18 | Cc1nc(N(C)CCNCC(F)(F)F)ccc1NC1CC2(CC(N)C2)C1 (stereo not shown) [Compound 616, N^5-(6-aminospiro [3.3]heptan-2-yl)-N^2,6-dimethyl-N2-(2-((2,2,2-trifluoroethyl)amino)ethyl) pyridine-2,5-diamine] | 0.1 to 100 nM
19 | Cc1nc(N2CCC(C)(C)CC2)ccc1NC[C@H]1CC[C@H](N)CC1 [Compound 617, N-(((1r,4r)-4-aminocyclohexyl)methyl)-6-(4,4-dimethylpiperidin-1-yl)-2-methylpyridin-3-amine] | 0.1 to 100 nM
20 | CC[C@@H]1CN(c2ccc(N[C@H]3C[C@@H](N)C3)c(C)n2)C[C@H](C)O1 [Compound 618, (1s,3S)-N1-(6-((2R,6S)-2-ethyl-6-methylmorpholino)-2-methylpyridin-3-yl)cyclobutane-1,3-diamine] | 100 to 1000 nM
21 | Cc1nc(N2CC(C)N(CC(F)(F)F)C(C)C2)ccc1NC1CC(N)C1 (stereo not shown) [Compound 619] | 0.1 to 100 nM

Second part, the compound after the results:

Row | EC50 | SMILES
22 | 0.1 to 100 nM | Cc1nc(N2C[C@@H](C)N(CC(F)(F)F)[C@@H](C)C2)ccc1NC1C[C@H]2CC(N)C[C@H]2C1 (stereo partly drawn) [Compound 577, (3aR,6aS)-N2-(6-((3R,5S)-3,5-dimethyl-4-(2.2,2-trifluoroethyl)piperazin-1-yl)-2-methylpyridin-3-yl)octahydropentalene-2,5-diamine]
23 | 0.1 to 100 nM | Cc1nc(N2C[C@@H](C)O[C@@H](C)C2)ccc1NCCC[C@H]1C[C@@H](N)C1 [Compound 578, N-(3-((1s,3R)-3-aminocyclobutyl)propyl)-6-((2S,6R)-2,6-dimethylmorpholino)-2-methylpyridin-3-amine]
24 | 0.1 to 100 nM | CC1CN(c2ccc(NC3CC4(CC(N)C4)C3)c(F)n2)CC(C)N1CC(F)(F)F (stereo not shown) [Compound 579, N2-(6-(3,5-dimethyl-4-(2,2,2-trifluoroethyl)piperazin-1-yl)-2-fluoropyridin-3-yl)spiro[3.3]heptane-2,6-diamine]
25 | 0.1 to 100 nM | CC1CN(c2ncc(NC3CC4(CC(N)C4)C3)cc2F)CC(C)N1CC(F)(F)F (stereo not shown) [Compound 580, N^2-(6-(3.5-dimethyl-4-(2,2,2-trifluoroethyl)piperazin-1-yl)-5-fluoropyridin-3-yl)spiro[3.3]hept ane-2,6-diamine]
26 | 0.1 to 100 nM | Cc1nc(N2CCC3(CCCOC3)CC2)ccc1NC[C@H]1CC[C@H](N)CC1 [Compound 581, N-(((1r,4r)-4-aminocyclohexyl)methyl)-2-methyl-6-(2-oxa-9-azaspiro [5.5]undecan-9-yl)pyridin-3-amine]
27 | 0.1 to 100 nM | Cc1nc(N2CCC3(CCOCC3)CC2)ccc1NC[C@H]1CC[C@H](N)CC1 [Compound 582, N-(((1r,4r)-4-aminocyclohexyl)methyl)-2-methyl-6-(3-oxa-9-azaspiro [5.5]undecan-9-yl)pyridin-3-amine]
28 | 0.1 to 100 nM | C[C@@H]1CN(c2ccc3cc(NCC[C@H]4C[C@H](N)C4)ccc3c2)C[C@H](C)O1 [Compound 583, N-(2-((1r,3S)-3-aminocyclobutyl)ethyl)-6-((2S,6R)-2,6-dimethylmorpholino) naphthalen-2-amine]
29 | 0.1 to 100 nM | NC(=O)C1CC2(CC(Nc3ccc4cc(N5CCC(C(F)(F)F)CC5)ccc4c3)C2)C1 (stereo not shown) [Compound 584, 6-((6-(4-(trifluoromethyl)piperidin-1-yl)naphthalen-2-yl)amino)spiro[3.3]heptane-2-carboxamide]
30 | 0.1 to 100 nM | Cc1nc(N2C[C@@H](C)O[C@@H](C)C2)ccc1NC1C2CC3CC1CC(CNCCO)(C3)C2 (stereo partly shown) [Compound 585]
31 | 0.1 to 100 nM | N[C@H]1CC[C@H](CNc2ccc(N3CCN(CC(F)(F)F)CC3)cc2F)CC1 [Compound 586, N-(((1r,4r)-4-aminocyclohexyl)methyl)-2-fluoro-4-(4-(2,2,2-trifluoroethyl)piperazin-1-yl)aniline]
32 | 0.1 to 100 nM | Cc1nc(N2CC(C)OC(C(F)(F)F)C2)ccc1NC1CC2(CC(N)C2)C1 (stereo not shown) [Compound 588]
33 | 0.1 to 100 nM | Cc1nc(N2CC(C)(C)OC(C)(C)C2)ccc1NC1CC2(CC(NCC(F)(F)F)C2)C1 (stereo not shown) [Compound 589]
34 | 0.1 to 100 nM | NC1CC(Nc2ccc3nc(N4CCC(C(F)(F)F)CC4)ccc3c2)C1 (stereo not shown) [Compound 592, N1-(2-(4-(trifluoromethyl)piperidin-1-yl)quinolin-6-yl)cyclobutane-1,3-diamine]
35 | 0.1 to 100 nM | NC1CC(Nc2ccc3cc(N4CCN(CC(F)(F)F)CC4)ccc3c2)C1 (stereo not shown) [Compound 593, N^1-(6-(4-(2,2,2-trifluoroethyl)piperazin-1-yl)naphthalen-2-yl)cyclobutane-1,3-diamine]
36 | 0.1 to 100 nM | Cc1nc(N2CCC(C3CC(C)OC(C)C3)CC2)ccc1NC1CC2(CC(N)C2)C1 (stereo not shown) [Compound 594, N^2-(6-(4-(2,6-dimethyltetrahydro-2H-pyran-4-yl)piperidin-1-yl)-2-methylpyridin-3-yl)spiro[3.3]heptane-2,6-diamine]
37 | 0.1 to 100 nM | Cc1nc(NC(C)(C)C)ccc1NC[C@H]1CC[C@H](N)CC1 [Compound 595, N^5-(((1r,4r)-4-aminocyclohexyl)methyl)-N^2-(tert-butyl)-6-methylpyridine-2,5-diamine]
38 | 0.1 to 100 nM | Cc1nc(NC(C)(C)C)ccc1NC1CC2(CC(N)C2)C1 (stereo not shown) [Compound 596, N^5-(6-aminospiro [3.3]heptan-2-yl)-N^2-(tert-butyl)-6-methylpyridine-2,5-diamine]
39 | 0.1 to 100 nM | Cc1cc(NC(C)(C)C)ccc1NC[C@H]1CC[C@H](N)CC1 [Compound 597, N^1-(((1r,4r)-4-aminocyclohexyl)methyl)-N^4-(tert-butyl)-2-methylbenzene-1,4-diamine]
40 | 0.1 to 100 nM | Cc1nc(N2CC(C)OC(C(F)(F)F)C2)ccc1NC[C@H]1CC[C@@H](N)CC1 (stereo partly shown) [Compound 598, N-(((1s,4s)-4-aminocyclohexyl)methyl)-2-methyl-6-(2-methyl-6-(trifluoromethyl)morpholino)pyridin-3-amine]
41 | 0.1 to 100 nM | CN(C)c1ccc2cc(NC3CC4(CC(N)C4)C3)ccc2c1 (stereo not shown) [Compound 601, N2-(6-aminospiro[3.3]heptan-2-yl)-N^6,N^6-dimethylnaphthalene-2,6-diamine]
42 | 0.1 to 100 nM | Cc1nc(N2CCC(C)(C)CC2)ccc1NC1CC2(CC(N)C2)C1 (stereo not shown) [Compound 602, N2-(6-(4,4-dimethylpiperidin-1-yl)-2-methylpyridin-3-yl)spiro[3.3]heptane-2,6-diamine]
43 | 0.1 to 100 nM | Cc1nc(N2CCN(CC(F)(F)F)C(C)C2)ccc1NC1CC2(CC(NC(N)=O)C2)C1 (stereo not shown) [Compound 603]

Reference: patent US20240360114A1 (SIRONAX LTD., priority 2021, published 2024)
